Data on 25 compounds can be found in US20260083851A1 (AVILAR THERAPEUTICS, INC., priority 2022, published 2026).

Read-outs that look alike come from different tables or passages of the source. Positions of bridges follow the written chain, without caps; N, C: chain ends. Non-standard residues stand in square brackets, D forms with d. Residues, ends and D or L forms follow the SMILES beside them. ξ: configuration not given here. Pro(4S-NH2) = N[C@@H]1CN[C@H](C(=O)O)C1; ξPro(4-NH2) = NC1CNC(C(=O)O)C1

In one test the target is IgG. In words: IgG SPR binding. The settings on record: second table, read-out: IgG KD. A general note: Surface plasmon resonance follows binding to a sensor surface in real time, without labels.
In test [1] the target is T1, ASGP receptor (biotinylated ASGPR) (Homo sapiens, UniProt P07306).
T1 construct: biotin (biotinylated)
T1 sequence (P07306 1-291): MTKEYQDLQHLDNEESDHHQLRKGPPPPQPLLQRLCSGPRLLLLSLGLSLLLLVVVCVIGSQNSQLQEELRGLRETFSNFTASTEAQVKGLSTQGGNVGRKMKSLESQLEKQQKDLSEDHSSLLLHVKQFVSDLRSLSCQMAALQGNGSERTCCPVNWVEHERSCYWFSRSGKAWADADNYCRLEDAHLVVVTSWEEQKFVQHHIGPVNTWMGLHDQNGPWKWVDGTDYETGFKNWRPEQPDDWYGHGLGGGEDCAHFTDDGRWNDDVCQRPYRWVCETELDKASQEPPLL
Type of test: binding. The settings on record: SPR, Biacore 8K, 25° C.

Broadly, the Kd is the equilibrium constant for the complex coming apart. In the case of `CC(C)C[C@@H]1NC(=O)[C@H](Cc2cnc[nH]2)NC(=O)[C@H](Cc2c[nH]c3ccccc23)NC(=O)[C@H](C)NC(=O)[C@@H]2CSSC[C@H](NC(=O)[C@H](Cc3c[nH]c4ccccc34)NC(=O)[C@H](C(C)C)NC(=O)[C@H](CC(C)C)NC(=O)[C@H](CCC(=O)O)NC(=O)CNC1=O)C(=O)N[C@@H]([C@@H](C)O)C(=O)N1CCC[C@@H]1C(=O)N1C[C@H](N)C[C@H]1C(=O)N[C@@H](CC(=O)O)C(=O)N2` [compound 95], at IgG, the Kd was less than 100 nM. Still for that read-out and setting: with `CC(C)CC1NC(=O)C(Cc2cnc[nH]2)NC(=O)C(Cc2c[nH]c3ccccc23)NC(=O)C(C)NC(=O)C2CSSCC(NC(=O)C(Cc3c[nH]c4ccccc34)NC(=O)C(C(C)C)NC(=O)C(CC(C)C)NC(=O)C(CCC(=O)O)NC(=O)CNC1=O)C(=O)NC(C(C)O)C(=O)N1CCCC1C(=O)N1CC(N)CC1C(=O)NC(CC(=O)O)C(=O)N2` (stereo not shown) [compound 66] the figure was less than 100 nM; with `CC(C)CC1NC(=O)C(Cc2cnc[nH]2)NC(=O)C(Cc2c[nH]c3ccccc23)NC(=O)C(C)NC(=O)C2CSSCC(NC(=O)C(Cc3c[nH]c4ccc(Cl)cc34)NC(=O)C(C(C)C)NC(=O)C(CC(C)C)NC(=O)C(CCC(=O)O)NC(=O)CNC1=O)C(=O)NC(C(C)O)C(=O)N1CCCC1C(=O)N1CC(N)CC1C(=O)NC(CC(=O)O)C(=O)N2` (stereo not shown) [compound 62], less than 100 nM; with `CC(C)CC1NC(=O)C(Cc2cnc[nH]2)NC(=O)C(Cc2c[nH]c3ccccc23)NC(=O)C(C)NC(=O)C2CSSCC(NC(=O)C(Cc3c[nH]c4ccccc34)NC(=O)C(C(C)C)NC(=O)C(CC(C)C)NC(=O)C(CCC(=O)O)NC(=O)CNC1=O)C(=O)NC(C(C)O)C(=O)N1CCCC1C(=O)N1CC(N)CC1C(=O)NC(C)C(=O)N2` (stereo not shown) [compound 54] (cyclo(GELVWCTP[ξPro(4-NH2)]ACAWHL); disulfide 6-11; configuration not given here), less than 100 nM. Still for that read-out and setting: then `CC(C)CC1NC(=O)C(C)NC(=O)CNC(=O)C(CC(C)C)NC(=O)C(Cc2cnc[nH]2)NC(=O)C(Cc2c[nH]c3ccccc23)NC(=O)C(C)NC(=O)C2CSSCC(NC(=O)C(Cc3c[nH]c4ccccc34)NC(=O)C(C(C)C)NC1=O)C(=O)NC(C(C)O)C(=O)N1CCCC1C(=O)N1CC(N)CC1C(=O)NC(CC(=O)O)C(=O)N2` (stereo not shown) [compound 59] (cyclo(GALVWCTP[ξPro(4-NH2)]DCAWHL); disulfide 6-11; configuration not given here), with less than 100 nM; and `CC(C)C[C@@H]1NC(=O)[C@H](C)NC(=O)CNC(=O)[C@H](CC(C)C)NC(=O)[C@H](Cc2cnc[nH]2)NC(=O)[C@H](Cc2c[nH]c3ccccc23)NC(=O)[C@H](C)NC(=O)[C@@H]2CSSC[C@H](NC(=O)[C@H](Cc3c[nH]c4ccccc34)NC(=O)[C@H](C(C)C)NC1=O)C(=O)N[C@@H]([C@@H](C)O)C(=O)N1CCC[C@@H]1C(=O)N1C[C@@H](N)C[C@H]1C(=O)N[C@@H](CC(N)=O)C(=O)N2` [compound 70] (cyclo(ALVWCT[dP][Pro(4S-NH2)]NCAWHLG); disulfide 5-10), with less than 100 nM; and `CC(C)CC1NC(=O)C(Cc2cnc[nH]2)NC(=O)C(Cc2c[nH]c3ccccc23)NC(=O)C(C)NC(=O)C2CSSCC(NC(=O)C(Cc3c[nH]c4ccccc34)NC(=O)C(C(C)C)NC(=O)C(CC(C)C)NC(=O)C(CCC(=O)O)NC(=O)CNC1=O)C(=O)NC(C(C)O)C(=O)N1CCCC1C(=O)N1CC(N)CC1C(=O)NC(CC(=O)O)C(=O)N2` (stereo not shown) [compound 58], with less than 100 nM. On to `CC(C)CC1NC(=O)C(Cc2cnc[nH]2)NC(=O)C(Cc2c[nH]c3ccccc23)NC(=O)C(C)NC(=O)C2CSSCC(NC(=O)C(Cc3c[nH]c4cc(Cl)ccc34)NC(=O)C(C(C)C)NC(=O)C(CC(C)C)NC(=O)C(CCC(=O)O)NC(=O)CNC1=O)C(=O)NC(C(C)O)C(=O)N1CCCC1C(=O)N1CC(N)CC1C(=O)NC(CC(=O)O)C(=O)N2` (stereo not shown) [compound 61], for which the Kd at IgG is less than 100 nM. As to `CC(C)C[C@@H]1NC(=O)[C@H](C)NC(=O)CNC(=O)[C@H](CC(C)C)NC(=O)[C@H](Cc2cnc[nH]2)NC(=O)[C@H](Cc2c[nH]c3ccccc23)NC(=O)[C@H](C)NC(=O)[C@@H]2CSSC[C@H](NC(=O)[C@H](Cc3c[nH]c4ccccc34)NC(=O)[C@H](C(C)C)NC1=O)C(=O)N[C@@H]([C@@H](C)O)C(=O)N1CCC[C@@H]1C(=O)N1C[C@@H](N)C[C@H]1C(=O)N[C@@H](C)C(=O)N2` [compound 67] (cyclo(ACAWHLGALVWCT[dP][Pro(4S-NH2)]); disulfide 2-12), on IgG, the Kd is less than 100 nM.

As to `CC(C)CC1NC(=O)C(Cc2cnc[nH]2)NC(=O)C(Cc2c[nH]c3ccccc23)NC(=O)C(C)NC(=O)C2CSSCC(NC(=O)C(Cc3c[nH]c4ccccc34)NC(=O)C(C(C)C)NC(=O)C(CC(C)C)NC(=O)C(CCC(N)=O)NC(=O)CNC1=O)C(=O)NC(C(C)O)C(=O)N1CCCC1C(=O)N1CC(N)CC1C(=O)NC(CC(=O)O)C(=O)N2` (stereo not shown) [compound 60] (cyclo(GQLVWCTP[ξPro(4-NH2)]DCAWHL); disulfide 6-11; configuration not given here), the Kd at IgG is less than 100 nM. `CC(C)C[C@@H]1NC(=O)[C@H](Cc2cnc[nH]2)NC(=O)[C@H](Cc2c[nH]c3ccccc23)NC(=O)[C@H](C)NC(=O)[C@@H]2CC/C=C/C[C@H](NC(=O)[C@H](Cc3c[nH]c4ccccc34)NC(=O)[C@H](C(C)C)NC(=O)[C@H](CC(C)C)NC(=O)[C@H](CCC(=O)O)NC(=O)CNC1=O)C(=O)N[C@@H]([C@@H](C)O)C(=O)N1CCC[C@@H]1C(=O)N1CCC[C@H]1C(=O)N[C@@H](CC(=O)O)C(=O)N2` [compound 99]: the Kd at IgG is less than 100 nM. The same measure, in the same setting: with `CC(C)CC1NC(=O)C(Cc2cnc[nH]2)NC(=O)C(Cc2c[nH]c3ccccc23)NC(=O)C(C)NC(=O)C2CSSCC(NC(=O)C(Cc3c[nH]c4ccccc34)NC(=O)C(C(C)C)NC(=O)C(CC(C)C)NC(=O)C(CCC(=O)O)NC(=O)CNC1=O)C(=O)NC(C(C)O)C(=O)N1CCCC1C(=O)N1CC(N)CC1C(=O)NC(CC(=O)O)C(=O)N2` (stereo not shown) [compound 63] the figure was less than 100 nM; with `CC(C)CC1NC(=O)C(Cc2cnc[nH]2)NC(=O)C(Cc2c[nH]c3ccccc23)NC(=O)C(C)NC(=O)C2CSSCC(NC(=O)C(Cc3c[nH]c4ccccc34)NC(=O)C(C(C)C)NC(=O)C(CC(C)C)NC(=O)C(CCC(=O)O)NC(=O)CNC1=O)C(=O)NC(C(C)O)C(=O)N1CCCC1C(=O)N1CC(N)CC1C(=O)NC(CC(N)=O)C(=O)N2` (stereo not shown) [compound 55] (cyclo(GELVWCTP[ξPro(4-NH2)]NCAWHL); disulfide 6-11; configuration not given here), less than 100 nM. Turning to `CC(C)C[C@@H]1NC(=O)[C@H](Cc2cnc[nH]2)NC(=O)[C@H](Cc2c[nH]c3ccccc23)NC(=O)[C@H](C)NC(=O)[C@@H]2CSSC[C@H](NC(=O)[C@H](Cc3c[nH]c4ccccc34)NC(=O)[C@H](C(C)C)NC(=O)[C@H](CC(C)C)NC(=O)[C@H](CCC(=O)N(C)C)NC(=O)CNC1=O)C(=O)N[C@@H]([C@@H](C)O)C(=O)N1CCC[C@@H]1C(=O)N1C[C@@H](N)C[C@H]1C(=O)N[C@@H](CC(=O)O)C(=O)N2` [compound 65], the Kd at IgG was less than 100 nM. On the same count and under the same terms, with `C#CCCCC(=O)NC1CC2C(=O)NC(CC(=O)O)C(=O)NC3CSSCC(NC(=O)C(Cc4c[nH]c5ccccc45)NC(=O)C(C(C)C)NC(=O)C(CC(C)C)NC(=O)C(CCC(=O)O)NC(=O)CNC(=O)C(CC(C)C)NC(=O)C(Cc4cnc[nH]4)NC(=O)C(Cc4c[nH]c5ccccc45)NC(=O)C(C)NC3=O)C(=O)NC(C(C)O)C(=O)N3CCCC3C(=O)N2C1` (stereo not shown) [compound 75] the figure was less than 100 nM. As for `OC[C@H]1OC[C@H](Nc2cccc(OC(F)F)n2)[C@@H](O)[C@H]1O` [A185, (2R,3R,4R,5S)-5-((6-(difluoromethoxy)pyridin-2-yl)amino)-2-(hydroxymethyl)tetrahydro-2H-pyran-3,4-diol], the equilibrium dissociation constant (Kd) in test [1] (Table 1C, read-out: ASGPR KD) is less than 10000 nM. Take `Nc1ccc(OC[C@H]2OC[C@H](Nc3cncc(C(F)(F)F)n3)[C@@H](O)[C@H]2O)nn1` [A418]: in test [1] (Table 1D, read-out: ASGPR KD), the Kd is less than 10000 nM. With `N#Cc1cc(N[C@H]2CO[C@H](CO)[C@H](O)[C@@H]2O)nc(C(F)(F)F)c1` [A139, 2-(((3S,4R,5R,6R)-4,5-dihydroxy-6-(hydroxymethyl)tetrahydro-2H-pyran-3-yl)amino)-6-(trifluoromethyl)isonicotinonitrile], the Kd in test [1] (Table 1B, read-out: ASGPR Kd) was less than 10000 nM. `CN1C[C@H](Nc2nccc(C(F)(F)F)n2)[C@@H](O)[C@@H](O)C1` [A372]: the Kd in test [1] (Table 1D, read-out: ASGPR KD) is less than 10000 nM.

On to `NC[C@H]1OC[C@H](Nc2nc(C(F)(F)F)ccc2F)[C@@H](O)[C@H]1O` [A99, (2R,3R,4R,5S)-2-(aminomethyl)-5-((3-fluoro-6-(trifluoromethyl)pyridin-2-yl)amino)tetrahydro-2H-pyran-3,4-diol], for which the Kd in test [1] (Table 1A, read-out: ASGPR KD) is less than 10000 nM. Consider `CC(C)(C)OC(=O)N1CCC(N2C[C@H](Nc3cccc(C(F)(F)F)n3)[C@@H](O)[C@@H](O)C2)CC1` [A397], for which the Kd in test [1] (Table 1D, read-out: ASGPR KD) was less than 10000 nM.

Turning to `OC[C@H]1OC[C@H](Oc2nccc(C(F)(F)F)n2)[C@@H](O)[C@H]1O` [A140, (2R,3R,4S,5S)-2-(hydroxymethyl)-5-((4-(trifluoromethyl)pyrimidin-2-yl)oxy)tetrahydro-2H-pyran-3,4-diol], in test [1] (Table 1B, read-out: ASGPR Kd), the Kd is less than 10000 nM. As to `O=C(OCc1ccccc1)N1CC(Nc2cn[nH]c2)[C@@H](O)[C@@H](O)C1` (stereo partly shown) [A371], the Kd in test [1] (Table 1D, numeric bound, read-out: ASGPR KD) was greater than 30000 nM. Take `O[C@@H]1[C@H](O)[C@@H](Oc2cccc(C(F)(F)F)n2)CO[C@@H]1CN1CCN(c2ncccn2)CC1` [A270]: in test [1] (Table 1C, read-out: ASGPR KD), the Kd was less than 10000 nM.

As to `O=C(c1ccc(-c2ccccc2)cc1)N1C[C@H](Nc2cncc(C(F)(F)F)n2)[C@@H](O)[C@@H](O)C1` [A376], the Kd in test [1] (Table 1D, read-out: ASGPR KD) was less than 10000 nM.
